# Literature values, collected in patent publication US20110160143A1, “Topical Acyl Glutathione Psoriasis Compositions” (priority 2009, published 2011).
# Tested on: HIV patients
# Conditions: oral administration
smiles,measurement,value
"O=C(O)CCCCC1CCSS1 (stereo not drawn) [alpha-lipoic acid, Alpha-lipoic acid]",glutathione levels,raises glutathione levels
same,safety and tolerability,extremely safe and well tolerated
